Reference: patent US20120090043A1, “TARGETS FOR RETROVIRUS ASSOCIATED DISEASES” (priority 2009, published 2012)
Peptide text beside a SMILES is read from it. * marks the point of attachment. Cbz = O=C(OCc1ccccc1)*

Experiments:
[1] = test system: HTLV-1 LTR promoter transactivation by HTLV-1 Tax; assay: Transactivation assay, HTLV-1 LTR luciferase reporter with HTLV-1 Tax; type: cell-based; conditions: HEK293 cells co-transfected with pHTLV1LTR-Luc, HTLV-1 Tax and the human ORF; relative luciferase activity 24 h post-transfection; positive if >=2 or <=0.5 and p<0.05
Description: (§1) Twenty-four hours post-transfection, cells were washed three times with PBS, lysed and luciferase activities determined from two independent transfection experiments in triplicate. We computed a paired t-test to assess the difference of the means between samples with and without the human interactor. For a trial to be considered positive, the relative luciferase activities has to be >=2 or <=0.5, and the p-value of the t-test<0.05.
Expression vectors encoding human ORFs and HIV-1 Tat or HTLV-1 Tax proteins were tested in a transactivation reporter assay against reporter plasmids harboring HIV-1 or HTLV-1 viral promoter sequences cloned upstream of the luciferase reporter gene. […] Wherever not expressly specified, constructs used herein were generally made by sub-cloning entry clones from the ORFeome V3.1 into suitable destination vectors.

[2] = test system: HIV-1 LTR promoter transactivation by HIV-1 Tat; assay: Transactivation assay, HIV-1 LTR luciferase reporter with HIV-1 Tat; type: cell-based; conditions: HEK293 cells co-transfected with pHIV1LTR-Luc, HIV-1 Tat and the human ORF; relative luciferase activity 24 h post-transfection; positive if >=2 or <=0.5 and p<0.05
Description: as §1, with “The plasmids pHIV1LTR-Luc or pHTLV1LTR-Luc containing a luciferase reporter gene under the control of the HIV-1 or HTLV-1 LTR promoters and plasmids expressing either HIV-1 Tat or HTLV-1 Tax and each human ORF found to interact with viral proteins were transfected into 10^4 HEK293 cells using the calcium phosphate method. Twenty-four” for “Twenty-four”
Many HIV/HTLV-human interactions in our data set (130/212) involved the retroviral transactivator proteins HTLV-1 Tax (57/212), HTLV-2 Tax2 (49/212), HIV-1 Tat (10/212) and HIV-2 Tat (14/212). Human proteins interacting with viral transactivators likely influence Tat or Tax transactivation. Expression vectors encoding human ORFs and HIV-1 Tat or HTLV-1 Tax proteins were tested in a transactivation reporter assay against reporter plasmids harboring HIV-1 or HTLV-1 viral promoter sequences cloned upstream of the luciferase reporter gene. In the controls Tat or Tax respectively activated HIV or HTLV LTR-directed gene expression. Co-transfection of interacting human ORFs identified 71 proteins (54% of the 131 human targets in our data set) that regulated HIV (26.7% of targets), HTLV (37.4% of targets) or both (9.9% of targets) LTR promoter activation by Tat or Tax (see Tables 7 and 8; Table 13 below containing quantitative data on the regulation of transactivation). Wherever not expressly specified, constructs used herein were generally made by sub-cloning entry clones from the ORFeome V3.1 into suitable destination vectors.

[3] = test system: HTLV-1 transformed cell line (MT4); assay: Quantitative RT-PCR of HTLV-1 mRNA in MT4 cells after γ-secretase (Notch pathway) inhibition; type: cell-based; conditions: 1 μM, 48 hours, vs vehicle (0.5% DMSO), mRNA relative to GAPDH
Experimental: FIG. 9 illustrates relative HTLV1-HBZ, -Gag and -Tax mRNA expression following MT4 cells treatment with vehicle (0.5% DMSO) or 1 μM of γ-secretase inhibitor L685,458. Viral mRNA expression data are calculated relative to GAPDH mRNA expression data as 2̂(CT(GAPDH)-CT(HBZ/Gag/Tax)) over three times triplicate experiments for each gene.
HTLV-1 transformed cell line (MT4) from Dr. Douglas Richman (Harada et al. Science, 1985, col. 229, p. 563-566) was obtained through the AIDS Research and Reference Reagent Program, Division of AIDS, NIAID, NIH. MT4 cells were cultured in RPMI supplemented with 10% fetal bovine serum and antibiotics. MT-4 cells were treated for 48 hours with a γ-secretase inhibitor (L-685,458) (Shearman et al. Biochemistry, 2000, vol. 39, 8698-8704). at 1 μM or vehicle (0.5% DMSO). Total RNA were then isolated by Trizol method, subjected to Dnase treatment and cDNAs synthesized using the RevertAid First Strand cDNA Synthesis kit according to the manufacturer instructions (Fermentas). Quantitative Real-time PCR for GAPDH, HBZ, Gag and Tax expression was performed on StepOne instrument (Applied Biosystem) using SYBR green dye (Eurogentec). Viral mRNA expression data are calculated relative to GAPDH mRNA expression data as 2̂(CT(GAPDH)—CT(HBZ/Gag/Tax)) over three times triplicate experiments for each gene, and differences were assessed through one-tailed Student's t-test.
To directly assess the involvement of the Notch pathway in viral infection, we treated HTLV-1 transformed cell line (MT4) with a γ-secretase inhibitor (GSI) (L-685,458) and tested whether inhibition of the Notch pathway could influence HTLV-1 expression in MT4 cell line.

[4] = test system: TRAF2; assay: Western blot of HIV-1 Gag induced TRAF2 degradation in HEK293T cells; type: cell-based, human
Description: FIG. 8 illustrates (A) Western-blotting of HEK293T cell extracts transfected with expressing vectors for GST-TRAF2 or truncated mutants deltaTRAF2 and deltaRING and p55 GAG/GFP, as indicated. Cell extracts were immunobloted with anti-GST, anti-GFP and anti-actin antibodies. (B) Western-blotting of HEK293T cells transfected with expressing vectors for GST-TRAF2 or GST-deltaRING truncated mutant, p55 GAG/GFP and Myc-Ubiquitin, as indicated. Cell extracts were immunobloted with anti-GST, anti-Myc and anti-actin antibodies. (C) Cells were pretreated with the cathepsin B inhibitor CA-074Me (10 μM) or the proteasomal inhibitor MG-132 (1 μM) for 24 H. Cell lysates were analysed as in (B).
To further corroborate that HIV Gag protein targets TRAF2 for proteasomal degradation, we first co-expressed in HEK293 cells HIV-1 Gag and TRAF2 or its truncation mutants lacking the TRAF domain (ΔTRAF) required for upstream signaling, or lacking the RING domain (ΔRING) required for E3 ubiquitin ligase function and downstream signaling. […]
In the presence of HIV-1 Gag we observed reduction of TRAF2 and ΔTRAF protein levels but not with the RING domain truncated mutant (FIG. 8A). To test whether TRAF2-E3 ubiquitin ligase activity was affected by HIV1 Gag, we next co-transfected a Myc-Ubiquitin expressing vector and evaluated the levels of Myc-tagged cellular ubiquitylated proteins by immunoblotting. […]

| Compound | HTLV_LTR transactiv. [1] [fold change] | HIV_LTR transactiv. [2] [fold change] | other results |
| --- | --- | --- | --- |
| BHLHB2: human host interactor protein, Gene ID 8553, expressed from transfected ORF vector | 0.20 |  |  |
| LOC91661: human host interactor protein, Gene ID 91661, expressed from transfected ORF vector |  | 0.16 |  |
| PSMF1: human host interactor protein, Gene ID 9491, expressed from transfected ORF vector | 14.83 |  |  |
| HOXA3: human host interactor protein, Gene ID 3200, expressed from transfected ORF vector | 0.25 | 0.29 |  |
| DVL2: human host interactor protein, Gene ID 1856, expressed from transfected ORF vector |  | 0.40 |  |
| FXR2: human host interactor protein, Gene ID 9513, expressed from transfected ORF vector | 0.38 |  |  |
| NOS3: human host interactor protein, Gene ID 4846, expressed from transfected ORF vector | 0.45 |  |  |
| CRX: human host interactor protein, Gene ID 1406, expressed from transfected ORF vector |  | 0.24 |  |
| UBE2I: human host interactor protein, Gene ID 7329, expressed from transfected ORF vector |  | 3.34 |  |
| CC(C)C[C@H](NC(=O)[C@H](Cc1ccccc1)C[C@@H](O)[C@H](Cc1ccccc1)NC(=O)OC(C)(C)C)C(=O)N[C@@H](Cc1ccccc1)C(N)=O [L-685,458] |  |  | HTLV-1 Tax1 expression ([3]; p<0.003): significantly lowers; HTLV-1 Gag expression ([3]; p<0.04): significantly lowers; HTLV-1 HBZ expression ([3]; p<2.1E-5): significantly lowers |
| OTX2: human host interactor protein, Gene ID 5015, expressed from transfected ORF vector | 7.37 |  |  |
| ZMAT1: human host interactor protein, Gene ID 84460, expressed from transfected ORF vector |  | 0.20 |  |
| HOXB9: human host interactor protein, Gene ID 3219, expressed from transfected ORF vector | 3.69 |  |  |
| CC(C)C[C@@H](C=O)NC(=O)[C@H](CC(C)C)NC(=O)[C@H](CC(C)C)NC(=O)OCc1ccccc1 [MG132] (Cbz-Leu-Leu-Leu-aldehyde) |  |  | HIV1-Gag induced degradation of TRAF2 ([4]; FIG. 6): not inhibited; HIV-1 Gag induced degradation of TRAF2 ([4]; HEK293T cells pretreated with 1 μM for 24 H, FIG. 8C): could be blocked |
| PCBP1: human host interactor protein, Gene ID 5093, expressed from transfected ORF vector | 0.44 |  |  |
| KCTD1: human host interactor protein, Gene ID 284252, expressed from transfected ORF vector | 0.42 |  |  |
| C8orf32: human host interactor protein, Gene ID 55093, expressed from transfected ORF vector | 0.26 |  |  |
